Results taken from ChEMBL document CHEMBL3407344, “Computer-guided drug repurposing: identification of trypanocidal activity of clofazimine, benidipine and saquinavir” (Eur J Med Chem, 2015).
Active and inactive are the calls of the source. No cut-off for these calls is given here.

Assays:
Trypanosoma cruzi [1] = test: Trypanocidal activity against GFP expressing Trypanosoma cruzi Y epimastigotes assessed as inhibition of parasite proliferation at 1 uM to 20 uM and measured during stationary phase by hemocytometry based cell counting method; assay type: functional, organism-based
[2] = target: Cruzipain (Trypanosoma cruzi) (UniProt P25779); test: Inhibition of Trypanosoma cruzi cruzaine at 100 uM using mMBz-Pro-Phe-Arg-pNA substrate incubated for 5 mins by UV-vis spectrophotometry
Chain of Cruzipain (Trypanosoma cruzi) (P25779 123-467 limits assumed): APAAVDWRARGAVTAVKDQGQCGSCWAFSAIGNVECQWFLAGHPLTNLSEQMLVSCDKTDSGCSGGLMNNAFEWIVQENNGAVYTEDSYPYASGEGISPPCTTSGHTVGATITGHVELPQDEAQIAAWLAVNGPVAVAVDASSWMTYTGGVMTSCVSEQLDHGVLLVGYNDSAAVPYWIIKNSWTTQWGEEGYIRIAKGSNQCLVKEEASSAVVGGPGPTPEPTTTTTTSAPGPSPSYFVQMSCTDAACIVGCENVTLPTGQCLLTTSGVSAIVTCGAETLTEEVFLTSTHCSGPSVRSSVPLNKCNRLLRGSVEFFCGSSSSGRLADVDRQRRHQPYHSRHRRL

Trypanosoma cruzi [3] = test: (§1) Trypanocidal activity against GFP expressing Trypanosoma cruzi Y epimastigotes in rat H9C2 cell monolayers for 24 hrs infected with 30 mins compound pre-treated parasite obtained from infected African green monkey Vero cells assessed as reduction in parasite count at 10 uM measured after 96 hrs by confocal microscopy; assay type: functional, organism-based
Trypanosoma cruzi [4] = test: Trypanocidal activity against GFP expressing Trypanosoma cruzi Y epimastigotes assessed as effect on parasite motility at 1 uM to 20 uM measured after 1 to 3 days by hemocytometry based cell counting method; assay type: functional, organism-based
Trypanosoma cruzi [5] = test: as §1, with “12” for “24”, “48” for “96”; assay type: functional, organism-based
H9c2 [6] = test: Cytotoxicity against rat H9c2 cells assessed as effect on metabolic activity at 10 uM by alamar blue assay; assay type: ADME, cell-based; details: h9c2, 10 µM
Trypanosoma cruzi [7] = test: Trypanocidal activity against GFP expressing Trypanosoma cruzi Y epimastigotes assessed as effect on parasite morphology at 1 uM to 20 uM measured after 1 to 3 days by hemocytometry based cell counting method; assay type: functional, organism-based
Trypanosoma cruzi [8] = test: as §1, with “12” for “24”, “cell invasion” for “parasite count”, “48” for “96”; assay type: functional
[9] = target: Cruzipain (Trypanosoma cruzi) (UniProt P25779); test: Inhibition of Trypanosoma cruzi cruzaine using mMBz-Pro-Phe-Arg-pNA substrate incubated for 5 mins by UV-vis spectrophotometry
Trypanosoma cruzi [10] = test: Trypanocidal activity against GFP expressing Trypanosoma cruzi Y epimastigotes assessed as inhibition of parasite proliferation at 1 uM to 20 uM and measured after 4 days by hemocytometry based cell counting method; assay type: functional; details: 96 h
Trypanosoma cruzi [11] = test: as §1, with “12” for “24”, “2.5” for “10”, “48” for “96”; assay type: functional, organism-based
Trypanosoma cruzi [12] = test: Trypanocidal activity against GFP expressing Trypanosoma cruzi Y C57BL/6J mouse acute model of trypanosomal infection assessed as reduction in parasitemia at 10 mg/kg/day, ip measured at 10,14 and 20 days post infection; assay type: functional; details: route intraperitoneal
[13] = Toxicity in orally dosed mouse; assay type: organism-based; details: in vivo, po
H9c2 [14] = test: Cytotoxicity against rat H9c2 cells assessed as effect on metabolic activity at 2.5 uM by alamar blue assay; assay type: ADME, cell-based; details: h9c2, 2.5 µM
Trypanosoma cruzi [15] = test: as §1, with “12” for “24”, “cell invasion” for “parasite count”, “2.5” for “10”, “48” for “96”; assay type: functional
Trypanosoma cruzi [16] = test: as §1, with “2.5” for “10”; assay type: functional, organism-based
Trypanosoma cruzi [17] = test: Trypanocidal activity against GFP expressing Trypanosoma cruzi Y C57BL/6J mouse acute model of trypanosomal infection assessed as reduction in parasitemia at 100 mg/kg/day, ip measured at 10,14 and 20 days post infection; assay type: functional, organism-based
Trypanosoma cruzi [18] = test: Trypanocidal activity against GFP expressing Trypanosoma cruzi Y C57BL/6J mouse acute model of trypanosomal infection assessed as reduction in cardiac amastigote nests counts at 100 mg/kg/day, ip measured at 10,14 and 20 days post infection by HE staining based conventional microscopy; assay type: functional, organism-based
Trypanosoma cruzi [19] = test: as §1, with “12” for “24”, “cell invasion” for “parasite count”, “5” for “10”, “48” for “96”; assay type: functional
Plasma = test: Plasma concentration in leprosy patient at […], po dosed daily; assay type: ADME, organism-based; design: route oral; details: human, in vivo
Trypanosoma cruzi [20] = test: as §1, with “5” for “10”; assay type: functional, organism-based
Trypanosoma cruzi [21] = test: Trypanocidal activity against GFP expressing Trypanosoma cruzi Y epimastigotes assessed as inhibition of parasite proliferation at 20 uM measured after few hrs by hemocytometry based cell counting method; assay type: functional, organism-based
Trypanosoma cruzi [22] = test: as §1, with “12” for “24”, “5” for “10”, “48” for “96”; assay type: functional, organism-based
Trypanosoma cruzi [23] = test: Trypanocidal activity against GFP expressing Trypanosoma cruzi Y C57BL/6J mouse acute model of trypanosomal infection assessed as reduction in cardiac amastigote nests counts at 20 mg/kg/day, ip measured at 10,14 and 20 days post infection by HE staining based conventional microscopy; assay type: functional, organism-based
H9c2 [24] = test: Cytotoxicity against rat H9c2 cells assessed as effect on metabolic activity at 5 uM by alamar blue assay; assay type: ADME, cell-based; details: h9c2, 5 µM
Trypanosoma cruzi [25] = test: Trypanocidal activity against GFP expressing Trypanosoma cruzi Y C57BL/6J mouse acute model of trypanosomal infection assessed as reduction in parasitemia at 20 mg/kg/day, ip measured at 10,14 and 20 days post infection; assay type: functional; details: route intraperitoneal

With `CC(C)(C)NC(=O)[C@@H]1C[C@@H]2CCCC[C@@H]2CN1C[C@@H](O)[C@H](Cc1ccccc1)NC(=O)[C@H](CC(N)=O)NC(=O)c1ccc2ccccc2n1` [SAQUINAVIR] the inhibition (Trypanosoma cruzi [1]) was “Active”, the inhibition [2] was “Active” and the Activity (Trypanosoma cruzi [3]) was “Active”. The Activity (Trypanosoma cruzi [4]) was “Active”, the Activity (Trypanosoma cruzi [5]) was “Active” and the Activity (H9c2 [6]) was “Non-toxic”. The Activity (Trypanosoma cruzi [7]) was “Active”, the “fold change (FC)” value (Trypanosoma cruzi [8]) was 3 and the inhibition [9] was “Dose-dependent effect”.
With `COC(=O)C1=C(C)NC(C)=C(C(=O)OC2CCCN(Cc3ccccc3)C2)C1c1cccc([N+](=O)[O-])c1` (configuration not stated) [BENIDIPINE] the LC50 (Trypanosoma cruzi [10]) was 19.5 µM, the inhibition [2] was “Active” and the Activity (Trypanosoma cruzi [11]) was “Active”. For the same compound, the Activity (Trypanosoma cruzi [4]) was “Active”, the inhibition in vivo at 10 mg/kg/day (Trypanosoma cruzi [12]) was 40% and the LD50 [13] was greater than 300 mg/kg. For the same compound, the Activity (Trypanosoma cruzi [7]) was “Active”, the inhibition [9] was “Dose-dependent effect” and the Activity (H9c2 [14]) was “Non-toxic”. The “fold change (FC)” value (Trypanosoma cruzi [15]) was 3 and the Activity (Trypanosoma cruzi [16]) was “Active”.
For `O=C(Cn1ccnc1[N+](=O)[O-])NCc1ccccc1`, the inhibition (Trypanosoma cruzi [17]) was “Active” and the inhibition (Trypanosoma cruzi [18]) was “Active”.
For `CC(C)/N=c1\cc2n(-c3ccc(Cl)cc3)c3ccccc3nc-2cc1Nc1ccc(Cl)cc1` [CLOFAZIMINE], the “fold change (FC)” value (Trypanosoma cruzi [19]) was 3, the concentration (Plasma) was 2100 nM and the LC50 (Trypanosoma cruzi [10]) was 10.6 µM. The inhibition [2] was “Active”, the Activity (Trypanosoma cruzi [20]) was “Active” and the Activity (Trypanosoma cruzi [4]) was “Active”. For the same compound, the LD50 [13] was 5000 mg/kg, the Activity (Trypanosoma cruzi [7]) was “Active” and the inhibition (Trypanosoma cruzi [21]) was “Active”. The Activity (Trypanosoma cruzi [22]) was “Active”, the inhibition [9] was “Dose-dependent effect” and the inhibition (Trypanosoma cruzi [23]) was “Active”. The Activity (H9c2 [24]) was “Non-toxic” and the inhibition in vivo at 20 mg/kg/day (Trypanosoma cruzi [25]) was 40%.
In the case of `COc1ccc(CCN(C)CCCC(C#N)(c2ccc(OC)c(OC)c2)C(C)C)cc1OC` (configuration not stated), the inhibition [2] is reported as “inactive”.
